Measurements from ChEMBL document CHEMBL4813981, “Synthesis and in vitro antibacterial activity of new aminothiazole-oximepiperidone cephalosporins” (2021).
Values after ≈ are worked out from the molar mass of the structure shown.

Legend:
Klebsiella aerogenes [1] = assay: Bactericidal activity against Enterobacter aerogenes 17-3 assessed as reduction in bacterial growth; type: functional
Enterobacter cloacae [2] = assay: Bactericidal activity against Enterobacter cloacae 17-9 assessed as reduction in bacterial growth; type: functional
Klebsiella pneumoniae [3] = assay: Antibacterial activity against ESBLs negative Carbapenem-sensitive Klebsiella pneumoniae 17-17 assessed as reduction in bacterial growth
Klebsiella aerogenes [4] = assay: Antibacterial activity against Enterobacter aerogenes 15-4 assessed as reduction in bacterial growth in the presence of Avibactam; type: functional
Enterobacter cloacae [5] = assay: Antibacterial activity against Enterobacter cloacae 17-1 assessed as reduction in bacterial growth in the presence of Avibactam; type: functional
Klebsiella aerogenes [6] = assay: Ratio of MBC to MIC for Enterobacter aerogenes 15-3 assessed as reduction in bacterial growth in the presence of Avibactam; type: functional
Enterobacter cloacae [7] = assay: Antibacterial activity against Enterobacter cloacae 17-3 assessed as reduction in bacterial growth
Enterobacter cloacae [8] = assay: Antibacterial activity against Enterobacter cloacae 17-3 assessed as reduction in bacterial growth in the presence of Avibactam; type: functional
Enterobacter cloacae [9] = assay: Ratio of MBC to MIC for Enterobacter cloacae 17-9 assessed as reduction in bacterial growth; type: functional
Escherichia coli [10] = assay: Ratio of MBC to MIC for ESBLs positive Carbapenem-sensitive Escherichia coli 17-10 assessed as reduction in bacterial growth; type: functional
Pseudomonas aeruginosa [11] = assay: Bactericidal activity against Carbapenem- resistant Pseudomonas aeruginosa 17-1 assessed as reduction in bacterial growth; type: functional
Enterobacter cloacae [12] = assay: Ratio of MBC to MIC for Enterobacter cloacae 17-2 assessed as reduction in bacterial growth in the presence of Avibactam; type: functional
Enterobacter cloacae [13] = assay: Antibacterial activity against Enterobacter cloacae 17-9 assessed as reduction in bacterial growth in the presence of Avibactam; type: functional
Klebsiella pneumoniae [14] = assay: Ratio of MBC to MIC for ESBLs positive Carbapenem-sensitive Klebsiella pneumoniae 17-12 assessed as reduction in bacterial growth; type: functional
Escherichia coli [15] = assay: Antibacterial activity against ESBLs positive Carbapenem-sensitive Escherichia coli 17-21 assessed as reduction in bacterial growth in the presence of Avibactam; type: functional
Acinetobacter baumannii = assay: Ratio of MBC to MIC for Carbapenem- resistant Acinetobacter baumannii 17-11 assessed as reduction in bacterial growth in the presence of Avibactam; type: functional
Pseudomonas aeruginosa [16] = assay: Ratio of MBC to MIC for carbapenem-sensitive Pseudomonas aeruginosa 17-10 assessed as reduction in bacterial growth in the presence of Avibactam; type: functional
Klebsiella aerogenes [17] = assay: Ratio of MBC to MIC for Enterobacter aerogenes 17-3 assessed as reduction in bacterial growth; type: functional
Klebsiella aerogenes [18] = assay: Ratio of MBC to MIC for Enterobacter aerogenes 17-3 assessed as reduction in bacterial growth in the presence of Avibactam; type: functional
Klebsiella pneumoniae [19] = assay: Ratio of MBC to MIC for ESBLs positive Carbapenem-sensitive Klebsiella pneumoniae 17-2 assessed as reduction in bacterial growth in the presence of Avibactam; type: functional
Escherichia coli [20] = assay: Antibacterial activity against ESBLs positive Carbapenem-sensitive Escherichia coli 17-2 assessed as reduction in bacterial growth in the presence of Avibactam; type: functional
Enterobacter cloacae [21] = assay: Ratio of MBC to MIC for Enterobacter cloacae 17-3 assessed as reduction in bacterial growth in the presence of Avibactam; type: functional
Klebsiella pneumoniae [22] = assay: Ratio of MBC to MIC for Carbapenem- resistant Klebsiella pneumoniae KR 15-6 assessed as reduction in bacterial growth; type: functional
Enterobacter cloacae [23] = assay: Antibacterial activity against Enterobacter cloacae 17-9 assessed as reduction in bacterial growth
Pseudomonas aeruginosa [24] = assay: Ratio of MBC to MIC for carbapenem-sensitive Pseudomonas aeruginosa 17-10 assessed as reduction in bacterial growth; type: functional
Escherichia coli [25] = assay: Antibacterial activity against Escherichia coli 15-3 overexpressing extended spectrum beta-lactamases assessed as reduction in bacterial growth in the presence of Avibactam; type: functional
Klebsiella aerogenes [26] = assay: Ratio of MBC to MIC for Enterobacter aerogenes 15-4 assessed as reduction in bacterial growth; type: functional
Enterobacter cloacae [27] = assay: Antibacterial activity against Enterobacter cloacae 17-4 assessed as reduction in bacterial growth in the presence of Avibactam; type: functional
Escherichia coli [28] = assay: Ratio of MBC to MIC for ESBLs negative carbapenem-negative Escherichia coli 17-9 assessed as reduction in bacterial growth in the presence of Avibactam; type: functional
Klebsiella aerogenes [29] = assay: Ratio of MBC to MIC for Enterobacter aerogenes 15-4 assessed as reduction in bacterial growth in the presence of Avibactam; type: functional
Klebsiella pneumoniae [30] = assay: Ratio of MBC to MIC for ESBLs negative Carbapenem-sensitive Klebsiella pneumoniae 17-16 assessed as reduction in bacterial growth; type: functional
Escherichia coli [31] = assay: Ratio of MBC to MIC for ESBLs positive carbapenem-negative Escherichia coli 17-3 assessed as reduction in bacterial growth in the presence of Avibactam; type: functional
Escherichia coli [32] = assay: Ratio of MBC to MIC for ESBLs negative Carbapenem-sensitive Escherichia coli 17-7 assessed as reduction in bacterial growth; type: functional
Escherichia coli [33] = assay: Ratio of MBC to MIC for Escherichia coli ATCC 25922 assessed as reduction in bacterial growth; type: functional
Escherichia coli [34] = assay: Antibacterial activity against ESBLs negative Carbapenem-sensitive Escherichia coli 17-19 assessed as reduction in bacterial growth in the presence of Avibactam; type: functional
Klebsiella pneumoniae [35] = assay: Ratio of MBC to MIC for Carbapenem-resistant Klebsiella pneumoniae KR 15-8 assessed as reduction in bacterial growth in the presence of Avibactam; type: functional
Escherichia coli [36] = assay: Antibacterial activity against ESBLs positive Carbapenem-sensitive Escherichia coli 17-10 assessed as reduction in bacterial growth
Pseudomonas aeruginosa [37] = assay: Ratio of MBC to MIC for carbapenem-sensitive Pseudomonas aeruginosa 17-9 assessed as reduction in bacterial growth in the presence of Avibactam; type: functional
Klebsiella pneumoniae [38] = assay: Ratio of MBC to MIC for ESBLs negative Carbapenem-sensitive Klebsiella pneumoniae 17-17 assessed as reduction in bacterial growth; type: functional
Klebsiella pneumoniae [39] = assay: Bactericidal activity against ESBLs negative Carbapenem-sensitive Klebsiella pneumoniae 17-17 assessed as reduction in bacterial growth; type: functional
Escherichia coli [40] = assay: Antibacterial activity against ESBLs positive Carbapenem-sensitive Escherichia coli 17-14 assessed as reduction in bacterial growth in the presence of Avibactam; type: functional
Enterobacter cloacae [41] = assay: Ratio of MBC to MIC for Enterobacter cloacae 17-3 assessed as reduction in bacterial growth; type: functional
Klebsiella pneumoniae [42] = assay: Antibacterial activity against ESBLs positive Carbapenem-sensitive Klebsiella pneumoniae 17-11 assessed as reduction in bacterial growth in the presence of Avibactam; type: functional
Klebsiella aerogenes [43] = assay: Ratio of MBC to MIC for Enterobacter aerogenes 17-1 assessed as reduction in bacterial growth in the presence of Avibactam; type: functional
Escherichia coli [44] = assay: Antibacterial activity against ESBLs negative Carbapenem-sensitive Escherichia coli 17-4 assessed as reduction in bacterial growth in the presence of Avibactam; type: functional
Klebsiella aerogenes [45] = assay: Ratio of MBC to MIC for Enterobacter aerogenes 17-4 assessed as reduction in bacterial growth in the presence of Avibactam; type: functional

With `CC(C)(O/N=C(\C(=O)N[C@@H]1C(=O)N2C(C(=O)[O-])=C(C[n+]3ccccc3)CS[C@H]12)c1csc(N)n1)C(=O)O` [CEFTAZIDIME] the MBC (Klebsiella aerogenes [1]) was 1 mg/L (≈ 1.83 µM), the MBC (Enterobacter cloacae [2]) was > 4 mg/L and the MIC (Klebsiella pneumoniae [3]) was 0.125 mg/L (≈ 0.229 µM).

Work on `Nc1nc(/C(=N/OCc2cc(=O)c(O)cn2O)C(=O)N[C@@H]2C(=O)N3C(C(=O)O)=CCS[C@H]23)cs1` yielded an MIC (Klebsiella aerogenes [4]) of 0.5 mg/L, an MIC (Enterobacter cloacae [5]) of 1 mg/L and a Ratio (Klebsiella aerogenes [6]) of 1. It also gave an MIC (Enterobacter cloacae [7]) of 64 mg/L (≈ 126 µM), an MIC (Enterobacter cloacae [8]) of 2 mg/L and a Ratio (Enterobacter cloacae [9]) of 1. The Ratio (Escherichia coli [10]) was 1, the MBC (Pseudomonas aeruginosa [11]) was 64 mg/L (≈ 126 µM) and the Ratio (Enterobacter cloacae [12]) was 8. The MIC (Enterobacter cloacae [13]) was 2 mg/L, the Ratio (Klebsiella pneumoniae [14]) was 2 and the MIC (Escherichia coli [15]) was 0.5 mg/L. For the same molecule, the Ratio (Acinetobacter baumannii) was >8, the Ratio (Pseudomonas aeruginosa [16]) was 2 and the Ratio (Klebsiella aerogenes [17]) was 1. The Ratio (Klebsiella aerogenes [18]) was 1, the Ratio (Klebsiella pneumoniae [19]) was 1 and the MIC (Escherichia coli [20]) was 0.25 mg/L. It also gave a Ratio (Enterobacter cloacae [21]) of 4, a Ratio (Klebsiella pneumoniae [22]) of 4 and an MIC (Enterobacter cloacae [23]) of 8 mg/L (≈ 15.7 µM). The Ratio (Pseudomonas aeruginosa [24]) was 4, the MIC (Escherichia coli [25]) was 1 mg/L and the Ratio (Klebsiella aerogenes [26]) was 1. The MIC (Enterobacter cloacae [27]) was 0.5 mg/L, the Ratio (Escherichia coli [28]) was 4 and the Ratio (Klebsiella aerogenes [29]) was 2. It also gave a Ratio (Klebsiella pneumoniae [30]) of 1, a Ratio (Escherichia coli [31]) of 2 and a Ratio (Escherichia coli [32]) of 2. For the same molecule, the Ratio (Escherichia coli [33]) was >16, the MIC (Escherichia coli [34]) was 0.5 mg/L and the Ratio (Klebsiella pneumoniae [35]) was 4. It also gave an MIC (Escherichia coli [36]) of 4 mg/L (≈ 7.87 µM), a Ratio (Pseudomonas aeruginosa [37]) of 2 and a Ratio (Klebsiella pneumoniae [38]) of 2. For the same molecule, the MBC (Klebsiella pneumoniae [39]) was 0.25 mg/L (≈ 0.492 µM), the MIC (Escherichia coli [40]) was 0.25 mg/L and the Ratio (Enterobacter cloacae [41]) was 1. For the same molecule, the MIC (Klebsiella pneumoniae [42]) was 4 mg/L, the Ratio (Klebsiella aerogenes [43]) was 2 and the MIC (Escherichia coli [44]) was 0.125 mg/L. It also gave a Ratio (Klebsiella aerogenes [45]) of 1.
